Test results published in patent US20190015385A1, “VITAMIN E PHOSPHATE OR ACETATE FOR USE IN THE TREATMENT AND PREVENTION OF BIOFILM INFECTIONS” (priority 2016, published 2019).

Legend:
Staphylococcus aureus = assay: Anti-biofilm activity, crystal violet spectrophotometric assay (Example 1); assay type: cell-based; settings: S. aureus
Description: (§1) The bacterial biofilm was formed in a sterile 96-well polystyrene plate. In short, a microbial suspension was prepared at an optical density of 0.5 McFarland for each strain. 20 μl of microbial suspension were added to each well containing 180 μl of VitE at various concentrations. Positive controls were performed by inoculating the bacteria in BHI+HA. Following incubation for 24 h at 37° C., the broth was removed, together with non-adherent microorganisms, and 200 μl of broth were added once again. The plates were incubated at 37° C. for another 48 h, until a mature biofilm was obtained.
(§2) The amount of biofilm was determined by means of a spectrophotometric assay, adopting the method developed by Christensen et al. (1985). At the end of the incubation period, the culture medium was removed and the wells covered by the biofilm were washed twice with a sterile saline solution and then dried. The biofilm was stained with 200 μl of a 5% crystal violet solution for 10 minutes. After staining, the wells were washed with a sterile saline solution to remove excess stain and left to dry completely. Lastly, 200 μl of 96% ethanol were added to each well to re-solubilize the stain included in the biofilm. Absorbance of the crystal violet was measured at 595 nm using a microplate reader. The assay was conducted in triplicate for each bacterial strain and repeated twice.

[1] = tested on: Staphylococcus epidermidis; assay: as above; assay type: cell-based; settings: S. epidermidis
Description: as §1, §2

Candida albicans = assay: as above; assay type: cell-based; settings: C. albicans
Description: as §1, §2

Pseudomonas aeruginosa [2] = assay: as above; assay type: cell-based; settings: P. aeruginosa
Description: as §1, §2

Escherichia coli = assay: as above; assay type: cell-based; settings: E. coli
Description: as §1, §2

[3] = tested on: methicillin-resistant Staphylococcus aureus; assay: Biofilm on coated titanium disks, CFU count (Example 2); assay type: cell-based; settings: S. aureus, vitamin E acetate 5 mg/cm^2, methylene blue 20 μg/cm^2
Text: (§3) This study used clinically relevant strains isolated from patients with prosthetic joint infections at the Microbiology Laboratory of the IRCCS Galeazzi Orthopaedic Institute (Italy). In particular, the following were selected: a strain of methicillin-resistant Staphylococcus epidermidis, a strain of methicillin-resistant Staphylococcus aureus and a strain of Pseudomonas aeruginosa. These strains were identified beforehand by means of biochemical assays (VITEK® 2 Compact, bioMérieux, Marcy l'Etoile, France) and stored at −80° C. prior to the analysis. Before beginning the study, all strains underwent testing to assess their ability to produce biofilms according to the spectrophotometric assay described by Christensen et al. (J Clin Microbiol 1985; 22: 996-1006).
(§4) Sterile disks of sandblasted titanium with a diameter of 25 mm and a thickness of 5 mm (Adler Ortho, Cormano, Italy) were used as the substrate for the formation of biofilms. The disks were coated with sub-inhibitory concentrations of vitamin E acetate (5 mg/cm^2) or vitamin E acetate with the addition of methylene blue (20 μg/cm^2). […] Uncoated disks were used as negative controls. Subsequently, an overnight bacteria culture was resuspended in Brain Heart Infusion Broth (BHI; Biomérieux) at a density of 1.5×10^8 CFU/ml for each strain, and 200 microliters of microbial suspension were inoculated in sterile polystyrene plates with 6 wells containing coated and uncoated disks and 4.8 ml of BHI. The plates were incubated at 37° C. in an aerobic atmosphere for 24 and 48 hours. The test was performed in triplicate for each strain.
(§5) Upon completion of the biofilm incubation time, the disks were washed twice with a sterile saline solution to eliminate non-adherent bacteria. The disks were then immersed in 5 ml of a 0.1 w/v % dithiothreitol solution (DTT, Sigma-Aldrich, Milan, Italy) and mechanically stirred for 15 minutes at room temperature. Suitable dilutions of the fluids obtained were inoculated on Tryptic Soy Agar (TSA, Merck) and incubated at 37° C. in an aerobic atmosphere for 24 hours for the CFU count.

[4] = tested on: methicillin-resistant Staphylococcus epidermidis; assay: as above; assay type: cell-based; settings: S. epidermidis, vitamin E acetate 5 mg/cm^2, methylene blue 20 μg/cm^2
Text: as §3, §4, §5

Pseudomonas aeruginosa [5] = assay: as above; assay type: cell-based; settings: P. aeruginosa, vitamin E acetate 5 mg/cm^2, methylene blue 20 μg/cm^2
Text: as §3, §4, §5

P. aeruginosa = assay: MIC and MBC, broth microdilution (Example 3); assay type: cell-based, Pseudomonas aeruginosa; settings: P. aeruginosa strains
Text: as §3, with “institute” for “Institute”, “strains” for “a strain”, “epidermidis,” for “epidermidis, a strain”, “and” for “and a strain”, “were screened” for “underwent testing”, “biofilms,” for “biofilms”
(§6) The bacteriostatic and bactericidal activity of vitamin E acetate and vitamin E phosphate against the above-mentioned bacterial strains was assessed by measuring the minimum inhibitory concentration (MIC) and the minimum bactericidal concentration (MBC). MIC, defined as the lowest concentration capable of inhibiting bacterial growth, was determined using the broth microdilution method according to EUCAST guidelines (http://www.eucast.org/clinical_breakpoints/).
(§7) In short, a suspension in Brain Heart Infusion Broth (BHI; Biomérieux, Marci l'Etoile, France) was prepared for each bacterial strain, with an optical density of 0.5 McFarland (1.5×10^8 CFU/ml). The P. acnes broth was supplemented with 5% defibrinated sheep blood (Liofilchem, Roseto degli Abruzzi, Italy). After a concentration of 10^5 UFC/ml was obtained using appropriate dilutions, each suspension was inoculated in a 96-well microtitre plate containing a two-fold serial dilution of vitamin E acetate (VitE-Ac) and vitamin E phosphate. The controls were performed by inoculating bacterial suspensions in BHI alone. […] After incubation at adequate conditions, MBC was read as the lowest concentration capable of killing 99.9% of the initial inoculum.

S. epidermidis = assay: MIC and MBC, broth microdilution (Example 3); assay type: cell-based, Staphylococcus epidermidis; settings: S. epidermidis strains
Text: as §3, with “institute” for “Institute”, “strains” for “a strain”, “epidermidis,” for “epidermidis, a strain”, “and” for “and a strain”, “were screened” for “underwent testing”, “biofilms,” for “biofilms”
as §6, §7

[6] = kills 99.9% of the initial inoculum

CC(=O)Oc1c(C)c(C)c2c(c1C)CCC(C)(CCC[C@H](C)CCC[C@H](C)CCCC(C)C)O2 (stereo partly drawn) [Vitamin E acetate, α-tocopherol acetate]
reduction of microbial biofilm with respect to the control (Staphylococcus aureus; 2.5% VitE in HA carrier): 63% | reduction of microbial biofilm with respect to the control (Staphylococcus aureus; 5% VitE in HA carrier): 79% | reduction of microbial biofilm with respect to the control ([1]; 2.5% VitE in HA carrier): 30% | reduction of microbial biofilm with respect to the control ([1]; 5% VitE in HA carrier): 46% | reduction of microbial biofilm with respect to the control (Candida albicans; 2.5% VitE in HA carrier): 24% | reduction of microbial biofilm with respect to the control (Candida albicans; 5% VitE in HA carrier): 37% | reduction of microbial biofilm with respect to the control (Pseudomonas aeruginosa [2]; 2.5% VitE in HA carrier): 24% | reduction of microbial biofilm with respect to the control (Pseudomonas aeruginosa [2]; 5% VitE in HA carrier): 39% | reduction of microbial biofilm with respect to the control (Escherichia coli; 2.5% VitE in HA carrier): 18% | reduction of microbial biofilm with respect to the control (Escherichia coli; 5% VitE in HA carrier): 38% | biofilm reduction with respect to the controls (in words) ([3]; 24 hours): significant | biofilm reduction with respect to the controls (in words) ([3]; 48 hours): significant | biofilm reduction with respect to the controls (in words) ([4]; 24 hours): significant | biofilm reduction with respect to the controls (in words) ([4]; 48 hours): significant | biofilm reduction with respect to the controls (in words) (Pseudomonas aeruginosa [5]; 24 hours): not after 24 hours | biofilm reduction with respect to the controls (in words) (Pseudomonas aeruginosa [5]; 48 hours): effective after 48 hours | MIC range (P. aeruginosa; 24 hours): >200 mg/mL | MBC range (P. aeruginosa; [6]): >200 mg/mL | MIC range (S. epidermidis; 24 hours): >200 mg/mL | MBC range (S. epidermidis; [6]): >200 mg/mL
